Data taken from article PMC11303713, “Allosteric inhibition of CFTR gating by CFTRinh-172 binding in the pore” (Nature Communications, 2024).
Where “and” joins values, the source holds several entries; their conditions need not be identical. Equal entries are not always repeated. Where two headings read alike, the source gives them in different places.

Key:
Test in all cases: Inside-out patch-clamp inhibition of CFTR current by Inh-172
Assay type in all cases: cell-based
[1] = target: T1, h-pTMD1-h-CFTR (human CFTR with pig CFTR's TMD1) (Homo sapiens, UniProt P13569, A209T/D426N/E115A/E407K/F315L/F87I/G228A/I125V/I215L/I231V/I328L/I332M/L145P/N418S/N445S/P41S/Q39H/R242K/S256N/T421I/V11I/V12F/V43S)
T1 construct: expressed in transfected cells; host or cells: CHO cells, pcDNA plasmid
T1 sequence (P13569 1-1480 with the stated changes): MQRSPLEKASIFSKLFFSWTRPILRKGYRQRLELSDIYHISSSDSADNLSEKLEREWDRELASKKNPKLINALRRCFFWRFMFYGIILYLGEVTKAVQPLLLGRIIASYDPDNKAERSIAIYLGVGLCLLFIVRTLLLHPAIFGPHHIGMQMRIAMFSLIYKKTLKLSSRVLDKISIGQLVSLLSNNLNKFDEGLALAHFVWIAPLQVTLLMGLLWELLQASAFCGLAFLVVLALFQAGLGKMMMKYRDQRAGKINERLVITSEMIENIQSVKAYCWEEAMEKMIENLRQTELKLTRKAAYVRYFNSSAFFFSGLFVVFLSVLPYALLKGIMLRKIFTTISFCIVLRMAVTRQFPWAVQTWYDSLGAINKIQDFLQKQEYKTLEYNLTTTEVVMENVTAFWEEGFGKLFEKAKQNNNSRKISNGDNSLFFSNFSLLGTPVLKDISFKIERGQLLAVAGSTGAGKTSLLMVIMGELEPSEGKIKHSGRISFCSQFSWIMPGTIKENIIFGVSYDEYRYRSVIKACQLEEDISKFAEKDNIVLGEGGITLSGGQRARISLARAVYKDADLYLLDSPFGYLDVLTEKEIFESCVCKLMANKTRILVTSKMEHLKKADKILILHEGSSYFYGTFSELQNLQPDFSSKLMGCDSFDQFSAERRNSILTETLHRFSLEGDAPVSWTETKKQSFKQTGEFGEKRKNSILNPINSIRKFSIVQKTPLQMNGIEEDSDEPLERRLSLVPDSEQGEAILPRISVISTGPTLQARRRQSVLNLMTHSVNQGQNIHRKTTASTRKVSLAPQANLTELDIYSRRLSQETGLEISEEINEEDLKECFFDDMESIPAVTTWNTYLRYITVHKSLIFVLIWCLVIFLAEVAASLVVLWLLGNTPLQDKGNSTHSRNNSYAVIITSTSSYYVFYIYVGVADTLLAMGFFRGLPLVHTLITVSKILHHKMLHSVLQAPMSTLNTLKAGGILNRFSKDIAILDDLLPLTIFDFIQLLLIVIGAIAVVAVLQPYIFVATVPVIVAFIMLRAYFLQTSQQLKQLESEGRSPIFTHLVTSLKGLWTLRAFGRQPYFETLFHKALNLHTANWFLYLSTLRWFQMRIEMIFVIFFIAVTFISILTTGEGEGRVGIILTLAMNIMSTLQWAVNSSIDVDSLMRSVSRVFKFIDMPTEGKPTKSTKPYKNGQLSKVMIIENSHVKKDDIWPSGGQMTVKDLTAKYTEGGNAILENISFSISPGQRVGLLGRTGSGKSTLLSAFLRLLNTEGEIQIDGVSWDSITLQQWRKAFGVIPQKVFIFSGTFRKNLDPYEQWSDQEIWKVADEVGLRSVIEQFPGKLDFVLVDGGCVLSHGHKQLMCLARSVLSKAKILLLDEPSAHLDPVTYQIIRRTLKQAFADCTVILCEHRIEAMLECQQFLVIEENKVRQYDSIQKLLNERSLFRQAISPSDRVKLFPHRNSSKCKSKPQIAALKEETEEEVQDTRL
Description: (§1) CHO cells were grown at 37 °C in Dulbecco’s modified Eagle’s medium supplemented with 10% (vol/vol) fetal bovine serum (Sigma-Aldrich, St. Louis, MO). pcDNA plasmids carrying the desired CFTR construct were transfected to CHO cells using PolyFect transfection reagent (Qiagen, Hilden, Germany) together with green fluorescence protein (GFP) cDNA (pEGFP-C3, Takara Bio, Shiga, Japan) that helps identify expression of CFTR. Cells were first incubated with the transfection reagents at 37 °C for 6-12 hours on sterile glass chips in 35-mm tissue culture dishes before transferred to 27 °C for incubation for 2–7 days. Primers for mutations were ordered from Integrated DNA Technologies (Coralville, IA) and were summarized in Supplementary Data. All CFTR mutants were prepared with QuikChange XL kit (Agilent, Santa Clara, CA) and sequenced at the DNA Core facility at University of Missouri-Columbia.
(§2) Patch-clamp pipettes were made from borosilicate capillary glass using a two-stage vertical puller (PP-81; Narishige, Amityville, NY). The pipette tips were fire polished with a homemade microforge to yield a pipette resistance of 2–5 MΩ when filled with a pipette solution containing (in mM): 140 NMDG-Cl (N-methyl-D-glucamine-chloride), 5 CaCl2, 2 MgCl2, and 10 HEPES, pH 7.4. For recordings, transfected cells on glass chips were transferred into a continuously perfused chamber on the stage of an inverted microscope (IX51; Olympus, Tokyo, Japan) with the perfusing solution containing (in mM): 150 NMDG-Cl, 2 MgCl2, 10 EGTA, 8 Tris, and 10 HEPES, pH 7.4. The membrane patch was excised to an inside-out configuration with a seal resistance >40 GΩ. CFTR currents were recorded with an amplifier (EPC9; HEKA, Holliston, MA), filtered through an eight-pole Bessel filter (LPF-8; Warner Instruments, Hamden, CT) at 100 Hz and digitized to a computer at a sampling rate of 500 Hz with Pulse software (version 8.53; HEKA). The membrane potential was held at −30 mV. Solution exchange was achieved by a fast solution change system (SF-77B; Warner Instruments). Inh-172 was obtained from the CFTR Chemical Compound Program supported by the Cystic Fibrosis Foundation. All experiments were performed at room temperature.
(§3) The steady state mean currents were measured in the Igor Pro software (version 8.0; WaveMetrics). The mean baseline currents were subtracted from the steady state mean currents before the data were used to determine the degrees of inhibition. The degrees of inhibition by CFTR inhibitor 172 were calculated based on the equation:1 %inhibition=1−IInh−172/I0X100% where I0 and Iinh−172 represent uninhibited and inhibited currents, respectively. The IC50 and Hill coefficients were obtained by fitting percent inhibition as a function of [Inh-172] with the Hill equation:2 %inhibition=base+(max−base)/1+xhalf/x^rate where max and base represent the […] percent inhibition by Inh-172, x represents the concentration of Inh-172, and the rate is the Hill coefficient. The estimated IC50 (xhalf) and Hill coefficients are listed in Table 1 as mean ± standard deviation. Each patch-clamp recording was made from a separate cell.

[2] = target: T2, h-pTMD2-h-CFTR (human CFTR with pig CFTR's TMD2) (Homo sapiens, UniProt P13569, A1009S/A789T/A797V/A842T/E1221D/E815D/F931L/G885K/H897K/H950R/I1005V/I1226V/I853V/I869V/I982V/INS1173D/K1174Q/K1177R/K830R/L805I/L889P/M1028L/M837V/M929L/N1184D/N782S/N886K/P888S/Q1012K/Q1035H/R1128T/R899A/S1196Q/S877C/S898G/S912A/T1171A/T1176N/T1179F/T1220V/T788A/T925G/V1017L/V1056I/V794M/W882C/Y1182S); details: for inhibition at 0.5 µM: 500 nM Inh-172; for inhibition at 1 µM: 1000 nM Inh-172; for inhibition at 10 µM: 10000 nM Inh-172
T2 construct: expressed in transfected cells; host or cells: CHO cells, pcDNA plasmid
T2 sequence (P13569 with tags, fused parts or gaps with the stated changes): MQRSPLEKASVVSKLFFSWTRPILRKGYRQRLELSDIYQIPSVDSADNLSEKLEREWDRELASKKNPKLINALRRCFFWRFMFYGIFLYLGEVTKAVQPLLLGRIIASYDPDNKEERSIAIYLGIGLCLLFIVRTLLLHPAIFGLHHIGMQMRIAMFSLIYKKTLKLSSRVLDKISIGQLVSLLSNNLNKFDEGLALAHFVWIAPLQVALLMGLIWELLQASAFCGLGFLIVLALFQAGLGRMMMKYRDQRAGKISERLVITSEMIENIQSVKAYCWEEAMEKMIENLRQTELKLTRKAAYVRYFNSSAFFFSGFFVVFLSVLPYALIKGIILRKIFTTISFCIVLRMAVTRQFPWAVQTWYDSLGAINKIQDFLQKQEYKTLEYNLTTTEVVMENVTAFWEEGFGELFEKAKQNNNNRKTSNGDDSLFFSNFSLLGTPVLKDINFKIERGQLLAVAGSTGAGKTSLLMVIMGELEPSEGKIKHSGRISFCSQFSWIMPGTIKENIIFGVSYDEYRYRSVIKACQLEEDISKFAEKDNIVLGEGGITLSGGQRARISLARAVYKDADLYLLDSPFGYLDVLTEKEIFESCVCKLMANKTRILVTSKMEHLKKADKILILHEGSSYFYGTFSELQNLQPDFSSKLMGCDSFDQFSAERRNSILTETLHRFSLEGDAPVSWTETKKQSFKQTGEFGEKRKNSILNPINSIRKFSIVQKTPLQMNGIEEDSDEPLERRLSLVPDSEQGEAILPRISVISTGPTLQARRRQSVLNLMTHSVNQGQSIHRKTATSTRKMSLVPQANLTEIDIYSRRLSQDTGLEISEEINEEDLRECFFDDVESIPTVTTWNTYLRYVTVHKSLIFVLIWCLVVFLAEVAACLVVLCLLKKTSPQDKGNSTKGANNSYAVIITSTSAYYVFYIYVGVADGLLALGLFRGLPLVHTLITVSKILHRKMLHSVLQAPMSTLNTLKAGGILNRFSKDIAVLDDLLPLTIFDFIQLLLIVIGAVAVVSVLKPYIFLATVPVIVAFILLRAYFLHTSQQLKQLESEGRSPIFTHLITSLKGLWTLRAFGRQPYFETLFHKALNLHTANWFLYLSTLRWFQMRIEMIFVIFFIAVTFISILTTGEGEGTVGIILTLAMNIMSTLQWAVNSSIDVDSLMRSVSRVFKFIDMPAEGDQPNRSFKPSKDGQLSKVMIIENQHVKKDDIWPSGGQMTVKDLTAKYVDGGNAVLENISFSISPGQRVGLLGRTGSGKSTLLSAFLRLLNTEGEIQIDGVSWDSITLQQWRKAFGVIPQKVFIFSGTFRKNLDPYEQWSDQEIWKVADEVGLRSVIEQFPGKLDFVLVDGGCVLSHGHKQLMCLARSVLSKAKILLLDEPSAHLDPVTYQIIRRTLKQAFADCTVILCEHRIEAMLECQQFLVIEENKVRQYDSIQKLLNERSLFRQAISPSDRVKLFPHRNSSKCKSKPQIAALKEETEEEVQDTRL
Description: as §1, §2, §3

[3] = target: T3, p-hTMD2-p-CFTR (pig CFTR with human CFTR's TMD2) (Sus scrofa, UniProt Q6PQZ2, A1172T/A789T/A900R/A913S/C878S/C883W/D1186N/D1223E/D816E/DEL1175-1175/F1181T/G899S/G926T/H1036Q/I1057V/I806L/K1013Q/K886G/K887N/K898H/L1018V/L1029M/L930M/L932F/M795V/N1178T/P890L/Q1176K/Q1198S/R1179K/R831K/R951H/S1010A/S1184Y/S783N/S889P/T1129R/T790A/T843A/V1006I/V1222T/V1228I/V798A/V838M/V854I/V870I/V983I)
T3 construct: expressed in transfected cells; host or cells: CHO cells, pcDNA plasmid
T3 sequence (Q6PQZ2 with tags, fused parts or gaps with the stated changes): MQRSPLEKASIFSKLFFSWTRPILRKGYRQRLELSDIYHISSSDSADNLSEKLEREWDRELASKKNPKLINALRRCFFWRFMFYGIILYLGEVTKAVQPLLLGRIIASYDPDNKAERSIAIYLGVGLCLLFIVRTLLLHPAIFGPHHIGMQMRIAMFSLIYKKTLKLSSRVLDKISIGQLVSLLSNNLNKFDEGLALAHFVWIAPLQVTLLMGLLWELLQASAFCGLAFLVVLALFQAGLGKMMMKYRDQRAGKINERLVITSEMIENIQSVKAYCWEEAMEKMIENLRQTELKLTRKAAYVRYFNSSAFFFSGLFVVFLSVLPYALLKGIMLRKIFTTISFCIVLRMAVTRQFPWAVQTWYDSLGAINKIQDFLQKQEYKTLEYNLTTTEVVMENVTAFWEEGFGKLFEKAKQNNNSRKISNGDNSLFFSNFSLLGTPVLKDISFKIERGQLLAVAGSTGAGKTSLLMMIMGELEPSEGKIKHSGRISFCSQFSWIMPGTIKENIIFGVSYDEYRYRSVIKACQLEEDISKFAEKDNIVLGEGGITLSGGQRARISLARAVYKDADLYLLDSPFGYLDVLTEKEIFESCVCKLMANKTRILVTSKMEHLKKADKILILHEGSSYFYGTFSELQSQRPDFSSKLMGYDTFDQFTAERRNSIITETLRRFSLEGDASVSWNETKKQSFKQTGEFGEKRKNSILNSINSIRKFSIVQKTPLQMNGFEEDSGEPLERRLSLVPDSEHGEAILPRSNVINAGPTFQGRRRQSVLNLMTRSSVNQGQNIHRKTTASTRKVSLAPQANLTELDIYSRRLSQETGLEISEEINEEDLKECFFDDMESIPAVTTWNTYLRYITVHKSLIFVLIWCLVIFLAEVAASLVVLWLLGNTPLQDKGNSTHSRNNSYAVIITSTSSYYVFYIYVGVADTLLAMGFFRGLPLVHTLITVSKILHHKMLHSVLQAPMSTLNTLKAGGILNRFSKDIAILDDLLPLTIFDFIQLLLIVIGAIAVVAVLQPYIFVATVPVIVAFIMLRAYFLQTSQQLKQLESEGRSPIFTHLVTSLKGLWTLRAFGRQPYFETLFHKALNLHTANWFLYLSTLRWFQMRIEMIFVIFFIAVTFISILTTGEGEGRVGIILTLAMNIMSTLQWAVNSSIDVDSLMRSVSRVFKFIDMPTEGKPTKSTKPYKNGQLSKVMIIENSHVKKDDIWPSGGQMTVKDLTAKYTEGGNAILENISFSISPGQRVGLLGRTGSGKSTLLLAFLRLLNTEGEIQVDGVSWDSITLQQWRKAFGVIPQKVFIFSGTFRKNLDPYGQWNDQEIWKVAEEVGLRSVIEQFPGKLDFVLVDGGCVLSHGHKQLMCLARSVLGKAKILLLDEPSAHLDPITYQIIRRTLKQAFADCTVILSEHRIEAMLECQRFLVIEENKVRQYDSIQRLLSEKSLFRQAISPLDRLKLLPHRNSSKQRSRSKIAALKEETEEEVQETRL
Description: as §1, §2, §3

[4] = 50 nM Inh-172, read-out: percent inhibition of current, Mean
[5] = 50 nM Inh-172, read-out: percent inhibition of current, individual cell
[6] = 100 nM Inh-172, read-out: percent inhibition of current, Mean
[7] = 100 nM Inh-172, read-out: percent inhibition of current, individual cell
[8] = 500 nM Inh-172, read-out: percent inhibition of current, Mean
[9] = 500 nM Inh-172, read-out: percent inhibition of current, individual cell
[10] = 1000 nM Inh-172, read-out: percent inhibition of current, Mean
[11] = 1000 nM Inh-172, read-out: percent inhibition of current, individual cell
[12] = 10000 nM Inh-172, read-out: percent inhibition of current, Mean
[13] = 10000 nM Inh-172, read-out: percent inhibition of current, individual cell
[14] = read-out: percent inhibition of current, Mean
[15] = read-out: percent inhibition of current, individual cell
[16] = 5000 nM Inh-172, read-out: percent inhibition of current, Mean

Q: For `O=C(O)c1ccc(/C=C2\SC(=S)N(c3cccc(C(F)(F)F)c3)C2=O)cc1` [Inh-172, CFTRinh-172], which “percent inhibition of current, individual cell” value (“percent inhibition of current” below) ([1]; 50 nM Inh-172) is on record?
A: 45.0 and 25.0

Q: And the inhibition at 0.05 µM [1, 4]?
A: 35.8%

Q: What about the inhibition at 0.05 µM [1, 5] of the same molecule?
A: 34%

Q: What about the “percent inhibition of current” value ([1]; 100 nM Inh-172) of the same molecule?
A: 51.0 and 37.0 and 50.0

Q: What about the inhibition at 0.1 µM [1, 6] of the same molecule?
A: 44.3%

Q: What about the inhibition at 0.1 µM [1, 7] of the same molecule?
A: 39%

Q: What about the “percent inhibition of current” value ([1]; 500 nM Inh-172) of the same molecule?
A: 86.0 and 76.0

Q: And the inhibition at 0.5 µM [1, 8]?
A: 81.8%

Q: And the inhibition at 0.5 µM [1, 9]?
A: 79%

Q: And the “percent inhibition of current” value ([1]; 1000 nM Inh-172)?
A: 94.0 and 89.0

Q: What about the inhibition at 1 µM [1, 10] of the same molecule?
A: 92%

Q: What about the inhibition at 1 µM [1, 11] of the same molecule?
A: 91%

Q: And the “percent inhibition of current” value ([1]; 10000 nM Inh-172)?
A: 100.0

Q: And the inhibition at 10 µM [1, 12]?
A: 99.8%

Q: What about the inhibition at 10 µM [1, 13] of the same molecule?
A: 99%

Q: And the “Hill Coefficient” value ([1]; h-pTMD1-h)?
A: 0.98 ± 0.10

Q: And the IC50 ([1]; h-pTMD1-h)?
A: 110 ± 10 nM

Q: And the inhibition at 0.1 µM [2, 6]?
A: 6.8%

Q: And the inhibition at 0.5 µM [2, 14]?
A: 18.8%

Q: And the inhibition at 0.5 µM [2, 15]?
A: 15%

Q: What about the inhibition at 1 µM [2, 14] of the same molecule?
A: 28.5%

Q: What about the inhibition at 1 µM [2, 15] of the same molecule?
A: 22%

Q: And the inhibition at 5 µM [2, 16]?
A: 56.5%

Q: And the inhibition at 10 µM [2, 14]?
A: 62.7%

Q: What about the inhibition at 10 µM [2, 15] of the same molecule?
A: 68%

Q: What about the “Hill Coefficient” value ([2]; h-pTMD2-h) of the same molecule?
A: 0.69 ± 0.04

Q: And the IC50 ([2]; h-pTMD2-h)?
A: 4020 ± 280 nM

Q: What about the IC50 ([2]; human CFTR with pig TMD2, earlier manuscript version, peer review file) of the same molecule?
A: 4020 nM

Q: And the “percent inhibition of current” value ([3]; 50 nM Inh-172)?
A: 48.0 and 39.0

Q: What about the inhibition at 0.05 µM [3, 4] of the same molecule?
A: 46.3%

Q: And the inhibition at 0.05 µM [3, 5]?
A: 52%

Q: And the “percent inhibition of current” value ([3]; 100 nM Inh-172)?
A: 60.0 and 64.0 and 67.0 and 62.0 and 55.0

Q: And the inhibition at 0.1 µM [3, 6]?
A: 63.6%

Q: And the inhibition at 0.1 µM [3, 7]?
A: 75%

Q: And the “percent inhibition of current” value ([3]; 500 nM Inh-172)?
A: 71.0 and 78.0 and 69.0 and 61.0

Q: What about the inhibition at 0.5 µM [3, 8] of the same molecule?
A: 72%

Q: What about the inhibition at 0.5 µM [3, 9] of the same molecule?
A: 81%

Q: What about the “percent inhibition of current” value ([3]; 1000 nM Inh-172) of the same molecule?
A: 84.0

Q: What about the inhibition at 1 µM [3, 10] of the same molecule?
A: 79.8%

Q: What about the inhibition at 1 µM [3, 11] of the same molecule?
A: 85%

Q: What about the “percent inhibition of current” value ([3]; 5000 nM Inh-172) of the same molecule?
A: 97.0 and 95.0

Q: And the inhibition at 5 µM [3, 16]?
A: 96%

Q: What about the inhibition at 5 µM ([3]; 5000 nM Inh-172, read-out: percent inhibition of current, individual cell) of the same molecule?
A: 96%

Q: And the “percent inhibition of current” value ([3]; 10000 nM Inh-172)?
A: 98.0 and 100.0 and 90.0 and 93.0 and 91.0

Q: What about the inhibition at 10 µM [3, 12] of the same molecule?
A: 95.6%

Q: What about the inhibition at 10 µM [3, 13] of the same molecule?
A: 99%

Q: And the “Hill Coefficient” value ([3]; p-hTMD2-p)?
A: 0.54 ± 0.08

Q: And the IC50 ([3]; p-hTMD2-p)?
A: 60 ± 20 nM

Q: What about the IC50 ([3]; pig CFTR with human TMD2, earlier manuscript version, peer review file) of the same molecule?
A: 55 nM
